Reference: the Deep4Chem optical property database
Values belong to the compound of their own block, whether it stands above or below them.

Test: solvent given as SMILES

SMILES: CCC1=C(C2=C(C3=C(CC)S(=O)(=O)c4ccccc43)C(F)(F)C(F)(F)C2(F)F)c2ccccc2S1(=O)=O
- absorption maximum (in C1COCCO1): 310 nm

SMILES: O=C1c2ccccc2-c2c(-c3cccc(Cl)c3O)[nH]c(=O)n21
- absorption maximum (in CC#N): 388 nm
- absorption maximum (in CO): 393 nm
- absorption maximum (in ClCCl): 391 nm

SMILES: Cc1ccc(C2CC(c3ccc(O)cc3)=NN2c2ccc(S(N)(=O)=O)cc2)cc1 (stereo unspecified)
- absorption maximum (in C1CCOC1): 359 nm
- absorption maximum (in C1COCCO1): 360 nm
- absorption maximum (in CC#N): 358 nm
- absorption maximum (in CC(C)O): 358 nm
- absorption maximum (in CCO): 358 nm
- absorption maximum (in CCOC(C)=O): 358 nm
- absorption maximum (in CN(C)C=O): 362 nm
- absorption maximum (in CO): 357 nm
- absorption maximum (in CS(C)=O): 364 nm
- absorption maximum (in O): 360 nm

SMILES: COc1cc2c(cc1F)c(=O)c1cc(F)c(OC)cc1n2Cc1ccccc1
- absorption maximum (in CCO): 381 nm

SMILES: N#CC(C#N)=C(c1ccc(N(c2ccccc2)c2ccccc2)cc1)c1ccc(N(c2ccccc2)c2ccccc2)cc1
- absorption maximum (in C1CCCCC1): 367.21 nm
- absorption maximum (in CC(C)=O): 370.45 nm
- absorption maximum (in CN(C)C=O): 374.03 nm
- absorption maximum (in Cc1ccccc1): 374.03 nm
- absorption maximum (in ClC(Cl)Cl): 381.49 nm

SMILES: Cc1c2ccccc2c(C2=C3C=CC=[N+]3[B-](F)(F)n3cccc32)c2ccccc12
- absorption maximum (in CC#N): 502 nm
- absorption maximum (in CCCCCC): 504 nm
- absorption maximum (in CCO): 503 nm
- absorption maximum (in CN(C)C=O): 506 nm
- absorption maximum (in Cc1ccccc1): 508 nm
- absorption maximum (in ClCCl): 506 nm

SMILES: Cc1ccc(N(c2cc(C(C)(C)C)ccc2C)c2ccc3ccc4c(N(c5ccc(C)cc5C)c5cc(C(C)(C)C)ccc5C)ccc5ccc2c3c54)c(C)c1
- absorption maximum (in Cc1ccccc1): 431 nm

SMILES: CCCCCCc1sc(CCCCCC)c2c3ccsc3c3sccc3c12
- absorption maximum (in ClC(Cl)Cl): 383 nm

SMILES: c1ccc(-c2c3c(c(-c4ccccc4)c4c2-c2ccccc2C4)-c2ccccc2C3)cc1
- absorption maximum (in C1CCCCC1): 329 nm

SMILES: CCCCN1C(=O)c2cccc3c([O-])c(/C=C/c4sc5ccccc5[n+]4CC)cc(c23)C1=O
- absorption maximum (in C1CCOC1): 586.75 nm
- absorption maximum (in CC#N): 564.61 nm
- absorption maximum (in CC(C)=O): 572.49 nm
- absorption maximum (in CCO): 555.68 nm
- absorption maximum (in CO): 545.83 nm
- absorption maximum (in CS(C)=O): 566.81 nm
- absorption maximum (in Cc1ccccc1): 607.26 nm
- absorption maximum (in ClC(Cl)Cl): 589.53 nm
- absorption maximum (in ClCCl): 584.78 nm
- absorption maximum (in O): 489.49 nm

SMILES: CCCCn1c(-c2ccc(-c3nnc(-c4ccc5ccccc5c4)o3)cc2)nc2c3ccccc3c3ccccc3c21
- absorption maximum (in ClCCl): 363 nm

SMILES: CC(C)(C(=O)c1ccc(N2c3ccccc3Oc3ccccc32)cc1)C(=O)c1ccc(N2c3ccccc3Oc3ccccc32)cc1
- absorption maximum (in Cc1ccccc1): 416 nm

SMILES: C(#Cc1ccccc1)C1=Cc2ccc3ccccc3c2NB1c1ccccc1
- absorption maximum (in C1CCCCC1): 387 nm

SMILES: CCCCc1cc(-c2cccc(COC)c2)oc1-c1cccc(-c2oc(-c3cccc(COC)c3)cc2CCCC)c1
- absorption maximum (in ClC(Cl)Cl): 334 nm

SMILES: CCCCN1C(=O)c2cc(Br)c3c4c(Br)c(Br)c5c6c(cc(Br)c(c7c(Br)c(Br)c(c2c37)C1=O)c64)C(=O)N(CCCC)C5=O
- absorption maximum (in ClC(Cl)Cl): 534 nm

SMILES: CN(C)c1ccc(/C=C/C=C/C2=NC3C(=O)NC(N)=NC3N2[C@H]2C[C@H](O)[C@@H](CO)O2)cc1 (stereo partly specified)
- absorption maximum (in C1COCCO1): 352 nm
- absorption maximum (in CC#N): 349 nm
- absorption maximum (in CO): 343 nm

SMILES: CC(=O)c1c(N[C@@H](CS)C(=O)O)c2ccc(N(C)C)cc2oc1=O
- absorption maximum (in ClCCl): 372 nm

SMILES: CC[N+]1(CC)CN2C(=N1)C(C(=O)O)=Cc1ccc(OC)cc12
- absorption maximum (in O): 372 nm

SMILES: COc1ccc(-c2cnc(-c3cccnc3)o2)cc1OC
- absorption maximum (in ClCCl): 330 nm

SMILES: CCCCCCc1ccc(-n2c3[n+](c4c5ccccc5c5ccccc5c42)[B-](C)(C)c2cc(N(c4ccccc4)c4ccccc4)ccc2-3)cc1
- absorption maximum (in C1CCOC1): 393 nm
- absorption maximum (in CC#N): 390 nm
- absorption maximum (in Cc1ccccc1): 397 nm
- absorption maximum (in ClCCl): 392 nm

SMILES: Cc1c(C(=O)c2ccc(C(F)(F)F)cc2)c2ccc3cccc4c5cccc6ccc1c(c65)c2c34
- absorption maximum (in ClCCl): 370 nm

SMILES: CC(C)Nc1cc2sc3cc(NC(C)C)c(F)cc3c(=O)c2cc1F
- absorption maximum (in CCO): 377 nm

SMILES: CO[B-]1(OC)n2c(C)cc(C)c2C(c2ccc(I)cc2)=C2C(C)=CC(C)=[N+]21
- absorption maximum (in ClC(Cl)Cl): 505 nm

SMILES: CC(C)(C)c1c2ccc3[nH]c4c(ccc5c(C(C)(C)C)c(ccc6[nH]c7c(ccc1c7n2)c6C(C)(C)C)nc54)c3C(C)(C)C
- absorption maximum (in Cc1ccccc1): 764 nm

SMILES: CCN(CC)c1ccc2cc(/C=C/C(=O)/C=C(O)/C=C/c3cc4ccc(N(CC)CC)cc4oc3=O)c(=O)oc2c1
- absorption maximum (in C1CCOC1): 518 nm
- absorption maximum (in C1COCCO1): 514 nm
- absorption maximum (in CC#N): 521 nm
- absorption maximum (in CC(C)=O): 519 nm
- absorption maximum (in CCOC(C)=O): 514 nm
- absorption maximum (in CN(C)C=O): 527 nm
- absorption maximum (in CS(C)=O): 540 nm
- absorption maximum (in Cc1ccccc1): 518 nm
- absorption maximum (in ClC(Cl)Cl): 520 nm
- absorption maximum (in ClCCl): 523 nm

SMILES: CN(C)c1ccc(C(=O)Nc2ccc([N+](=O)[O-])cc2)cc1
- absorption maximum (in C1CCCCC1): 337 nm
- absorption maximum (in C1CCOC1): 353 nm
- absorption maximum (in CC#N): 354 nm
- absorption maximum (in CCOCC): 345 nm

SMILES: CCCCCCCCCCC(CCCCCCCCCC)Cn1c2cc(-c3ccc(C(C)(C)C)cc3)c3cccc4c5ccc6c7cc(-c8cc(C(C)(C)C)cc(C(C)(C)C)c8)n8c7c(c7cc1c(c5c76)c2c34)=C1C=CC(c2cc(C(C)(C)C)cc(C(C)(C)C)c2)=[N+]1[B-]8(F)F
- absorption maximum (in Cc1ccccc1): 780 nm

SMILES: CCCCN1C(=O)c2c(Br)c(Br)c3c4c(Br)c(Br)c5c6c(c(Br)c(Br)c(c7c(Br)c(Br)c(c2c37)C1=O)c64)C(=O)N(CCCC)C5=O
- absorption maximum (in ClC(Cl)Cl): 538 nm

SMILES: Brc1ccc(-c2nc(-c3ccc(C#Cc4ccc(-n5c6ccccc6c6ccccc65)cc4)cc3)nc(-c3ccc(C#Cc4ccc(-n5c6ccccc6c6ccccc65)cc4)cc3)n2)cc1
- absorption maximum (in ClCCl): 357 nm

SMILES: COc1ccc2n1[B-](F)(F)[N+]1=C(c3ccccc3)C=CC1=C2c1ccc(C)cc1
- absorption maximum (in C1CCCCC1): 532 nm
- absorption maximum (in C1CCOC1): 528 nm
- absorption maximum (in C1COCCO1): 529 nm
- absorption maximum (in CCOC(C)=O): 526 nm
- absorption maximum (in CO): 523 nm
- absorption maximum (in Cc1ccccc1): 534 nm
- absorption maximum (in ClC(Cl)Cl): 530 nm

SMILES: C#CCOc1ccc(/C=C/C2=[N+]3C(=C(c4ccc(N5CCCCC5)cc4)c4c(C)cc(C)n4[B-]3(F)F)C(C)=C2)cc1
- absorption maximum (in CO): 568 nm

SMILES: CN(C)c1ccc(C2=Nc3sc4cc(F)ccc4[n+]3[B-](F)(F)O2)cc1
- absorption maximum (in C1CCOC1): 425 nm
- absorption maximum (in CC#N): 422 nm
- absorption maximum (in CC(C)=O): 426 nm
- absorption maximum (in Cc1ccccc1): 423 nm
- absorption maximum (in ClCCl): 425 nm

Next, values leading:

- absorption maximum (in O): 398 nm
SMILES: CC(=O)Nc1ccc2c(c1)c(=O)c1ccccc1n2CCCCCC(=O)O

- absorption maximum (in ClC(Cl)Cl): 409 nm
SMILES: CCCCCCN1C(=O)c2cccc3c(-c4ccc(-c5cccs5)s4)ccc(c23)C1=O

- absorption maximum (in C1COCCO1): 434 nm
- absorption maximum (in CC#N): 431 nm
- absorption maximum (in ClCCl): 434 nm
SMILES: CCCn1c(=O)c(/C=C/c2nc3ccc(C)cc3n(CCC)c2=O)nc2ccc(C)cc21

- absorption maximum (in ClCCl): 400 nm
SMILES: O=[N+]([O-])c1ccc2nc3cc4ccccc4cc3c(-c3ccccc3)c2c1

- absorption maximum (in ClCCl): 412 nm
SMILES: O=P1(c2ccccc2)c2cccc3ccc4ccc1n4c23 (stereo unspecified)

- absorption maximum (in C1CCOC1): 593 nm
SMILES: CC1=C(C#Cc2ccc(N(c3ccccc3)c3ccccc3)cc2)C(C)=[N+]2C1=C(c1ccccc1)c1c(C)c(C#Cc3ccc(N(c4ccccc4)c4ccccc4)cc3)c(C)n1[B-]2(F)F

- absorption maximum (in C1CCCCC1): 376 nm
- absorption maximum (in CC#N): 380 nm
- absorption maximum (in CO): 378 nm
- absorption maximum (in ClC(Cl)Cl): 383 nm
SMILES: CN(C)c1ccc(/C=C/c2ccc(-c3nc(C#N)c(C#N)n3C)cc2)cc1

- absorption maximum (in CC#N): 401 nm
- absorption maximum (in CO): 401 nm
- absorption maximum (in ClCCl): 406 nm
SMILES: COc1ccc(-c2[nH]c(=O)n3c2-c2ccccc2C3=O)c(OC)c1

- absorption maximum (in ClCCl): 308 nm
SMILES: c1ccc(N(c2ccccc2)c2ccc(-n3ccc4cc(-c5ccc(C6(c7ccccc7)c7ccccc7-c7ccccc76)cc5)ccc43)cc2)cc1

- absorption maximum (in CCO): 335 nm
SMILES: Nc1cc(F)c(C(=O)c2cc(F)c(F)cc2F)cc1F

- absorption maximum (in C1CCOC1): 342 nm
- absorption maximum (in CCCCCC): 338 nm
- absorption maximum (in CCO): 344 nm
- absorption maximum (in CS(C)=O): 345 nm
SMILES: CCOc1ccc2cc(-c3ccc(C)cc3)c(=O)oc2c1

- absorption maximum (in C1CCCCC1): 438 nm
- absorption maximum (in C1CCOC1): 439 nm
- absorption maximum (in CC#N): 437 nm
- absorption maximum (in ClC(Cl)Cl): 440 nm
- absorption maximum (in c1ccccc1): 440 nm
SMILES: Cc1cc(C)c(B(c2c(C)cc(C)cc2C)c2cc3ccc4ccccc4c3c3c2cc(N(C)C)c2ccccc23)c(C)c1

- absorption maximum (in C1CCOC1): 576 nm
SMILES: F[B-]1(F)n2c(c(-c3ccccc3)c(-c3ccccc3)c2-c2ccccc2)C=C2C(c3ccccc3)=C(c3ccccc3)C(c3ccccc3)=[N+]21

- absorption maximum (in CO): 387 nm
SMILES: c1ccc(N(c2ccccc2)c2ccc(-c3ncc(-c4cccs4)s3)cc2)cc1

- absorption maximum (in CC#N): 330 nm
- absorption maximum (in CCCCCC): 325 nm
- absorption maximum (in CCO): 333 nm
- absorption maximum (in CN(C)C=O): 336 nm
- absorption maximum (in ClC(Cl)Cl): 330 nm
SMILES: COc1ccc(-n2nc(C#N)c(NC3CCCCC3)n2)cc1

- absorption maximum (in CCO): 379.08 nm
SMILES: Cc1cc2cc3ccccc3cc2cn1

- absorption maximum (in C1CCOC1): 365 nm
SMILES: c1cc2ccc1-c1ccc(cc1)-c1ccc([se]1)-c1ccc(cc1)-c1ccc(cc1)-c1ccc([se]1)-c1ccc(cc1)-c1ccc(cc1)-c1ccc-2[se]1

- absorption maximum (in ClC(Cl)Cl): 423.73 nm
SMILES: CCCCCCn1c2cc(/C=C(\C#N)c3ccccc3)ccc2c2ccc(/C=C(\C#N)c3ccccc3)cc21

- absorption maximum (in CO): 300 nm
SMILES: COc1cccc(-c2nc(-c3ccccc3)c(-c3ccccc3)[nH]2)c1

- absorption maximum (in ClC(Cl)Cl): 485 nm
SMILES: N#Cc1nc(N(Cc2ccccc2Cl)Cc2ccccc2Cl)c(C#N)nc1N(Cc1ccccc1Cl)Cc1ccccc1Cl

- absorption maximum (in CO): 434 nm
SMILES: BrC1=CN2C[n+]3cc(Br)ccc3N=C2C=C1

- absorption maximum (in ClC(Cl)Cl): 486 nm
SMILES: CCCCCCCCCCCCCCOc1ccc(C#Cc2cc3nc4c(OCCCCCCCCCCCC)cc5c6cc(OCCCCCCCCCCCC)c(OCCCCCCCCCCCC)cc6c6cc(OCCCCCCCCCCCC)c(OCCCCCCCCCCCC)cc6c5c4nc3cc2C#Cc2ccc(OCCCCCCCCCCCCCC)cc2)cc1

- absorption maximum (in CC#N): 306.26 nm
- absorption maximum (in CCO): 309.39 nm
- absorption maximum (in ClCCl): 311 nm
SMILES: CN(C)c1cc(-c2ccc(C#Cc3ccncc3)cc2)cc2ccccc12
